Results from paper PMC12495443, “Developing inhibitors of the guanosine triphosphate hydrolysis accelerating activity of Regulator of G protein Signaling-14 [drawing 1]” (The Journal of Biological Chemistry, 2025).
Positions count from the first letter of the chain named. Entries after “also recorded” stand apart in the source; their conditions may differ.

Assays:
[1] = biological target: T1, human RGS14 RGS-box (wild-type) (Homo sapiens, UniProt O43566); assay: Transcreener GDP RGScreen fluorescence polarization assay of RGS14 RGS-box GAP activity on Gαi1(DM); format: biochemical
T1 construct: human RGS14 RGS-box (aa 46–195 of UniProt O43566); host or cells: E. coli
T1 sequence (O43566 46-195): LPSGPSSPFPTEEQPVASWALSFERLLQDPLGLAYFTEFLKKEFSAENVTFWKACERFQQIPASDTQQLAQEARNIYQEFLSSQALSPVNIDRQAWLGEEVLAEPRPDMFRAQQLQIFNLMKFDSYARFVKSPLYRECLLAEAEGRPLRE
Procedure, shortened: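 Steady-state GTP hydrolysis by rate-altered double point-mutant Gαi1 was read by Transcreener GDP fluorescence polarization, with GTP conversion kept below 10% of maximum input. The E. coli-expressed, N-terminal His6-tagged wild-type RGS-boxes were RGS12 aa 695–843 and RGS14 aa 46–195.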

[2] = biological target: T2, cysteine-less RGS14 RGS-box protein (Homo sapiens, UniProt O43566, C100S/C183S); assay: Transcreener GDP RGScreen assay with cysteine-less RGS14 RGS-box; format: biochemical; settings: range given jointly for cysteine-less RGS14 and RGS12 proteins; read-out: estimated IC50, cysteine-less RGS14 RGS-box
T2 construct: human RGS14 RGS-box (aa 46–195 of UniProt O43566); host or cells: E. coli
T2 sequence (O43566 46-195 C100S/C183S): T1 sequence (O43566 46-195) with C55S, C138S
Excerpt: Given the earlier experience with screening hit CCG-4986 being a covalent modifier of RGS4 cysteine residues ([35]), we sought to exclude protein-thiol reactivity as a potential mechanism of action of the active compounds derived from the AtomNet virtual screening effort ([55]) and SAR campaign follow-ups. To address this possibility and screen out thiol-reactive hits, cysteine-lacking versions of recombinant proteins spanning the RGS-boxes of RGS14 and RGS12 were purified from E. coli cultures.
Reagents and protocols for the fluorescence anisotropy-based Transcreener GDP RGScreen assay using a rate-altered, double point-mutant, recombinant Gαi1 protein have been extensively described previously ([43], [44]); reactions were always performed so that total GTP converted over the time course was consistently less than 10% of reaction maximum input. Specific methods for its application in assessing RGS14 and RGS12 GAP activity are summarized as follows. Open-reading frames (ORFs) encoding wild-type versions of the human RGS14 RGS-box (aa 46–195 of UniProt O43566) and human RGS12 RGS-box (aa 695–843 of UniProt O14924) were each sub-cloned in-frame with an N-terminal hexahistidine (His6) expression tag in the plasmid pET30a, expressed in E. coli cultures, and then purified by nickel-nitriloacetate (Ni-NTA) and size-exclusion (Superdex 200) column chromatographies by GenScript using previously described methods ([35]). […]
Supplementary Figure S5. […] (A,B) Recombinant, cysteine residue-lacking (“-cys”) RGS14 RGS-box protein (panel A) and cysteine residue-lacking RGS12 RGS-box protein ([…]) were both observed, in a concentration-dependent fashion (indicated in ng/µL by color), to increase steady-state GDP production by 0.5 ng/µL Gai1(DM) protein in a 20 µL final reaction volume, as measured by the Transcreener® GDP-detection RGScreen™ assay and detected by the change in polarization (ΔmP) at each indicated time point (“enz” = Gai1(DM) protein a.k.a. […]

THP-1 cell line = assay: Cytotoxicity assays (CytoTox-Glo, CytoTox 96); format: cell-based; settings: THP-1 cells, overnight, CytoTox-Glo and CytoTox 96
Procedure: To evaluate cellular toxicity of active compounds, we employed the immortalized human monocytic THP1-Dual cell line (InvivoGen) in two orthogonal cytotoxicity assays: ATP-dependent luminescence (CytoTox-Glo) and colorimetric lactate dehydrogenase (LDH) release (CytoTox 96). For each assay, compounds were serially diluted 2-fold starting at 250 μM and added to 96-well flat-bottom tissue culture plates (Thermo Scientific Nunc, Cat# 165306). THP1-Dual cells were then seeded at 20,000 to 30,000 cells per well in 100 μl RPMI 1640 media supplemented with 10% fetal bovine serum (Gibco). Plates were gently mixed and incubated overnight at 37 °C in a humidified 5% CO2 incubator. For the CytoTox-Glo assay (Promega, Cat# G9291), 50 μl of assay reagent was added to each well. Plates were mixed briefly, sealed, and incubated at room temperature for 15 min before reading luminescence on a TECAN Infinite M1000 Pro plate reader to quantify dead-cell signal. Subsequently, 50 μl of a digitonin-containing lysis solution was added to each well, followed by a second luminescence read after 15 min to assess total cell content. Percent cytotoxicity was calculated per manufacturer instructions. For the CytoTox 96 Non-Radioactive Cytotoxicity Assay (Promega, Cat# G1780), after overnight compound treatment, LDH release into the culture medium was measured by adding the provided substrate mix. Absorbance was read at 490 or 492 nm within 1 h of adding the stop solution. Assay optimization and data normalization were conducted according to the manufacturer’s technical manual.

- Ratio (RGS14 pIC50 / RGS12 pIC50) ([1]; values > 1.0 reflect RGS14 selectivity): 0.95
- IC50 ([1]; wild-type RGS14 RGS-box GAP activity, Gαi1(DM), Transcreener GDP RGScreen, read-out: RGS14 pIC50 (converted)): 2.29 µM
- IC50 [2]: 10 to 19 µM
Structure (SMILES): COc1ccc(OCc2nnc3n2N=C(c2ccc(OC)c(OC)c2)CS3)cc1 [Z55660043, 6-(3,4-dimethoxyphenyl)-3-[(4-methoxy-phenoxy)methyl]-5H-[1,2,4]triazolo[3,4-b][1,3,4]thiadiazine]
- cytotoxicity (THP-1 cell line): without measurable cytotoxicity; also recorded: no overt cytotoxicity
